Where two headings read alike, the source gives them in different places.
Experiments:
[1] = system: ELO(Ci) elongase; experiment: Expression of ELO(Ci) in yeast (feeding, GLC of FAMEs); assay type: cell-based, Ciona intestinalis; settings: amounts fed: in each case 250 μM
Experimental: The yeasts were subsequently plated onto complete uracil dropout minimal medium supplemented with 2% glucose. […] Fatty acid methyl esters (FAMEs) were prepared from the yeast cell sediments by acid methanolysis. […] The FAMEs were extracted by twice extracting with petroleum ether (PE). […] (holding). […] Thereafter, the FAMEs were analyzed via GLC.

[2] = system: ELO(XI) elongase; experiment: Expression of ELO(XI) in yeast (feeding, GLC of FAMEs); assay type: cell-based, Xenopus laevis; settings: amounts fed: in each case 250 μM
Experimental: (§1) The yeasts were subsequently plated onto complete uracil dropout minimal medium supplemented with 2% glucose.
(§2) Fatty acid methyl esters (FAMEs) were prepared from the yeast cell sediments by acid methanolysis. […] The FAMEs were extracted by twice extracting with petroleum ether (PE). […] (holding).
(§3) Thereafter, the FAMEs were analyzed via GLC.

[3] = system: TL16y2 Δ5-elongase; experiment: Expression of TL16y2 in yeast (feeding experiments, GC); assay type: cell-based, Thraustochytrium ssp.
Experimental: as §1
(§4) The substrate specificity of BioTaurELO1 was determined after expression and feeding of various fatty acids (FIG. 6). […] After the fatty acids had been extracted from the yeasts, they were transmethylated and separated by gas chromatography. The elongation products originating from the two fatty acids which had been fed are identified by arrows.
The functionality and substrate specificity of TL16y2 were determined after expression and feeding of various fatty acids. […] The feeding experiments were carried out in the same manner as described for BioTaurELO1. The substrates which have been fed can be detected in large amounts in all transgenic yeasts. […] This means that the gene TL16y2 has been expressed functionally.

[4] = system: BioTaurELO1 Δ5-elongase; assay type: cell-based, Thraustochytrium aureum ATCC34304
Experimental: as §1, §4

[5] = system: OtElo2.1 (Δ6-elongase); assay type: cell-based, Ostreococcus tauri
[6] = system: OtElo2 (Δ6-elongase); assay type: cell-based, Ostreococcus tauri
[7] = system: OtDes6.1 (Δ6-desaturase); experiment: Substrate specificity of the desaturase OtDes6.1 in yeast (feeding, GLC of FAMEs); settings: conversion rate of the substrate fed to yeast with pYES2-OtDes6.1; mean (n=3)
Excerpt: The Saccharomyces cerevisiae strain 334 was transformed by electroporation (1500 v) with the vector pYES2.1-OtDes6.1. A yeast which was transformed with the blank vector pYES2 was used as the control. The transformed yeasts were selected on complete minimal dropout uracil medium (CMdum) agar plates supplemented with 2% glucose. After the selection, in each case three transformants were selected for the further functional expression.
To express the OtDes6.1 desaturase, precultures of in each case 5 ml of dropout uracil CMdum liquid medium supplemented with 2% (w/v) raffinose were inoculated with the selected transformants and incubated for 2 days at 30° C., 200 rpm. 5 ml of CMdum liquid medium (without uracil) supplemented with 2% raffinose and 300 μm of various fatty acids were then inoculated with the precultures to an OD600 of 0.05. Expression was induced by addition of 2% (w/v) galactose. The cultures were incubated for a further 96 hours at 20° C. […]
The yeasts which had been transformed with the vector pYES2-OtDes6.1 were cultured in minimal medium in the presence of the fatty acids detailed. […] Thereafter, the FAMEs were analyzed via GLC. […] The activity corresponds to the conversion rate calculated using the formula [substrate/(substrate+product)*100].

[8] = system: biosynthesis of DHA (OmElo3, Euglena gracilis Δ4-desaturase, Phaeodactylum tricornutum Δ5-desaturase); experiment: Reconstitution of the synthesis of DHA in yeast by coexpressing OmElo3, EgD4 and PtD5; assay type: cell-based, Saccharomyces cerevisiae
Experimental: The reconstitution of the biosynthesis of DHA (22:6 ω3) was carried out starting from EPA (20:5 ω3) or stearidonic acid (18:4 ω3) by coexpressing OmElo3 together with the Euglena gracilis Δ4-desaturase or the Phaeodactylum tricornutum Δ5-desaturase and the Euglena gracilis Δ4-desaturase. To this end, the expression vectors pYes2-EgD4 and pESCLeu-PtD5 were additionally constructed. The abovementioned yeast strain which is already transformed with pYes3-OmElo3 (SEQ ID NO: 55), was then transformed further with pYes2-EgD4, or simultaneously with pYes2-EgD4 and pESCLeu-PtD5. […] The cultures were subsequently incubated for a further 120 hours at 15° C.
The additional introduction of the EEgΔ4-desaturase led to the conversion of 22:5 ω3 into 22:6 ω3 DHA. After coexpression of OmElo3 and EgD4, up to 3% DHA was detected in yeasts.
In a further coexpression experiment, OmElo3, EgD4 and a Δ5-desaturase from P. tricomutum (PtD5) were expressed together. The transgenic yeasts were fed stearidonic acid (18:4 ω3) and analyzed (FIG. 4). OmElo3 elongated the fed fatty acid 18:4 ω3 to give 20:4 ω3 (60% elongation). The latter was desaturated by PtD5 to give 20:5 ω3. The PtD5 activity amounted to 15%. Furthermore, 20:5 ω3 was elongated by […] to give 22:5 ω3. Thereafter, the newly synthesized 22:5 ω3 was desaturated to give 22:6 ω3 (DHA). Up to 0.7% of DHA was obtained in these experiments.

[9] = system: PtELO6 (Δ6-elongase); experiment: Substrate specificity of PtELO6 in yeast (feeding, GLC of FAMEs); assay type: cell-based, Phaeodactylum tricornutum; settings: fatty acids fed to yeast pYES2-PtELO6
[10] = system: OtElo1.2 (Δ5-elongase); assay type: cell-based, Ostreococcus tauri; settings: yeast transformed with pOTE1.2 (Table 18)
[11] = system: OtElo1 (Δ5-elongase); assay type: cell-based, Ostreococcus tauri; settings: yeast transformed with pOTE1 (Table 18)
[12] = system: OmELO2; experiment: Functional characterization of OmELO2 in yeast (fatty acid feeding, GLC of FAMEs); assay type: cell-based, Oncorhynchus mykiss; settings: expression in yeast
[13] = system: OmElo3 elongase; experiment: Functional characterization of OmELO3 in yeast (fatty acid feeding, GLC of FAMEs); assay type: cell-based, Oncorhynchus mykiss; settings: expression in yeast, different substrates
[14] = system: TpELO3 (Δ6-elongase); experiment: Expression of TpELO3 in yeast (feeding, GLC of FAMEs); assay type: cell-based, Thalassiosira pseudonana
Experimental: as §1, §2, §3

[15] = 250 μm fatty acid fed (Table 7)
[16] = fatty acid fed to yeast expressing BioTaurELO1

CCCCCCCCCCCCCCCC(=O)O [16:0]
Conversion of the starting materials by ELO(Ci) in % [1]: 0% | Conversion of the starting materials by ELO(XI) in % [2]: 3%

CCCCCC/C=C\CCCCCCCC(=O)O [16:1^Δ9, palmitoleic acid]
Conversion of the starting materials by ELO(Ci) in % [1]: 0% | Conversion of the starting materials by ELO(XI) in % [2]: 0%

CCCCCCCCCCCCCCCCCC(=O)O [18:0]
Conversion of the starting materials by ELO(Ci) in % [1]: 0% | Conversion of the starting materials by ELO(XI) in % [2]: 2%

CCCCC/C=C\C/C=C\CCCCCCCC(=O)O [18:2^Δ9,12, linoleic acid]
Conversion of the starting materials by ELO(Ci) in % [1]: 23% | Conversion of the starting materials by ELO(XI) in % [2]: 3%

CCCCC/C=C\C/C=C\CC/C=C\CCCC(=O)O [18:3^Δ5,9,12, pinolenic acid (all-cis-5,9,12-octadecatrienoic acid)]
Conversion of the starting materials by ELO(Ci) in % [1]: 38% | Conversion of the starting materials by ELO(XI) in % [2]: 13%

CCCCC/C=C\C/C=C\C/C=C\CCCCC(=O)O [18:3^Δ6,9,12, γ-linolenic acid]
conversion rate in % [3, 15]: 74.9% | conversion rate [4]: 65.28% | Conversion rate of OtElo2.2 (in %) [5]: 55.7% | Conversion rate of OtElo2 (in %) [6]: 15.3% | Conversion of the starting materials by ELO(Ci) in % [1]: 10% | Conversion of the starting materials by ELO(XI) in % [2]: 12%

CC/C=C\C/C=C\C/C=C\CCCCCCCC(=O)O [18:3^Δ9,12,15, α-linolenic acid]
Activity in % [7]: 64.6% | Conversion of the starting materials by ELO(Ci) in % [1]: 25% | Conversion of the starting materials by ELO(XI) in % [2]: 3%

CC/C=C\C/C=C\C/C=C\C/C=C\CCCCC(=O)O [18:4^Δ6,9,12,15, stearidonic acid]
conversion rate in % [3, 15]: 79.4% | conversion rate [4, 16]: 65.66% | Conversion rate of OtElo2.2 (in %) ([5]; yeast transformed with pOTE2.1 (Table 19)): 70.4% | Conversion rate of OtElo2 (in %) ([6]; yeast transformed with pOTE2 (Table 19)): 21.1% | Conversion of the starting materials by ELO(Ci) in % [1]: 3% | Conversion of the starting materials by ELO(XI) in % [2]: 20% | elongation of 18:4 ω3 to 20:4 ω3 ([8]; coexpression of OmElo3, EgD4 and PtD5, fed 18:4 ω3): 60%

CCCCC/C=C\C/C=C\C/C=C\CCCCCCC(=O)O [20:3^Δ8,11,14, dihomo-γ-linolenic acid]
conversion by PtELO6 [9]: not converted | Conversion of the starting materials by ELO(Ci) in % [1]: 10% | Conversion of the starting materials by ELO(XI) in % [2]: 5%

CC/C=C\C/C=C\C/C=C\CCCCCCCCCC(=O)O [20:3^Δ11,14,17]
conversion by PtELO6 [9]: not converted | Conversion of the starting materials by ELO(Ci) in % [1]: 8% | Conversion of the starting materials by ELO(XI) in % [2]: 13%

CCCCC/C=C\C/C=C\C/C=C\C/C=C\CCCC(=O)O [20:4^Δ5,8,11,14, arachidonic acid]
Conversion rate of OtElo1.2 (in %) [10]: 38.0% | conversion rate in % [3, 15]: 20.3% | conversion rate [4, 16]: 14.47% | conversion by PtELO6 [9]: not converted | Conversion rate of OtElo1 (in %) [11]: 10.8 ± 0.6% | Conversion of the starting materials by ELO(Ci) in % [1]: 10% | Conversion of the starting materials by ELO(XI) in % [2]: 15%

CC/C=C\C/C=C\C/C=C\C/C=C\C/C=C\CCCC(=O)O [20:5^Δ5,8,11,14,17, eicosapentaenoic acid]
Conversion rate of OtElo1.2 (in %) [10]: 68.6% | conversion rate in % ([3]; 50 μm fatty acid fed): 41% | conversion rate in % [3, 15]: 8% | conversion rate [4, 16]: 22.01% | conversion rate ([4]; when feeding GLA and EPA together): 9.99% | Conversion rate of OtElo1 (in %) [11]: 46.8 ± 3.6% | Conversion of the starting materials by ELO(Ci) in % [1]: 15% | Conversion of the starting materials by ELO(XI) in % [2]: 10% | elongation of 20:5 ω3 to 22:5 ω3 ([8]; yeast with pYes3-OmElo3 and blank vector pYes2, fed 20:5 ω3): 65%

CCCCCC=CCC=CCC=CCC=CCCCCCC(=O)O [22:4^Δ7,10,13,16, docosatetraenoic acid]
conversion by PtELO6 [9]: not converted | Conversion of the starting materials by ELO(Ci) in % [1]: 0% | Conversion of the starting materials by ELO(XI) in % [2]: 0%

CC/C=C\C/C=C\C/C=C\C/C=C\C/C=C\C/C=C\CCC(=O)O [22:6^Δ4,7,10,13,16,19, docosahexaenoic acid]
Conversion of the starting materials by ELO(Ci) in % [1]: 0% | Conversion of the starting materials by ELO(XI) in % [2]: 0%

eicosadienoic acid [20:2^Δ11,14]
conversion by PtELO6 [9]: not converted

B1: OmELO2: gene product from Oncorhynchus mykiss, SEQ ID NO: 51, expressed in yeast (protein)
chain: MASTWQSVQSMRQWILENGDKRTDPWLLVYSPMPVAIIFLLYLGVVWAGPKLMKRREPVDLKAVLIVYNFAMVCLSVYMFHEFLVTSLLSNYSYLCQPVDYSTSPLAMRMAKVCWWFFFSKVIELADTVFFILRKKNSQLTFLHVYHHGTMIFNWWAGVKYLAGGQSFFIGLLNTFVHIVMYSYYGLAALGPHTQKYLWWKRYLTSLQLLQFVLLTTHTGYNLFTECDFPDSMNAVVFAYCVSLIALFSNFYYQSYLNRKSKKT
modifications: Oncorhynchus mykiss; CDS (1)..(795): Delta-5 elongase
elongase activity [12]: no elongase activity

B2: OmELO3: elongase from Oncorhynchus mykiss, SEQ ID NO: 53 (protein)
chain: METFNYKLNMYIDSWMGPRDERVQGWLLLDNYPPTFALTVMYLLIVWMGPKYMRHRQPVSCRGLLLVYNLGLTILSFYMFYEMVSAVWHGDYNFFCQDTHSAGETDTKIINVLWWYYFSKLIEFMDTFFFILRKNNHQITFLHIYHHASMLNIWWFVMNWVPCGHSYFGASLNSFIHVLMYSYYGLSAVPALRPYLWWKKYITQVQLIQFFLTMSQTICAVIWPCDFPRGWLYFQIFYVITLIALFSNFYIQTYKKHLVSQKKEYHQNGSVASLNGHVNGVTPTETITHRKVRGD
modifications: Oncorhynchus mykiss; CDS (1)..(885): Delta-5 elongase
elongase activity [13]: pronounced activity

B3: TpELO3: Δ6-elongase from Thalassiosira pseudonana, SEQ ID NO: 45 (protein, listed as Thalassiosira pseudonana)
chain: MDAYNAAMDKIGAAIIDWSDPDGKFRADREDWWLCDFRSAITIALIYIAFVILGSAVMQSLPAMDPYPIKFLYNVSQIFLCAYMTVEAGFLAYRNGYTVMPCNHFNVNDPPVANLLWLFYISKVWDFWDTIFIVLGKKWRQLSFLHVYHHTTIFLFYWLNANVLYDGDIFLTILLNGFIHTVMYTYYFICMHTKDSKTGKSLPIWWKSSLTAFQLLQFTIMMSQATYLVFHGCDKVSLRITIVYFVSLLSLFFLFAQFFVQSYMAPKKKKSA
modifications: CDS (1)..(819): Delta-5 elongase
% conversion, column 5 ([14]; fed 250 μm arachidonic acid): 0% | % conversion, column 6 ([14]; fed 250 μm eicosapentaenoic acid): 0% | % conversion, column 4 ([14]; fed 250 μm stearidonic acid): 85% | % conversion, column 3 ([14]; fed 250 μm γ-linolenic acid): 75%

— patent US10035989B2, “Method for producing polyunsaturated fatty acids in transgenic plants” (BASF Plant Science GmbH, priority 2004, dated 2018)
